{"source": "patent US20240417747A1", "about": "(priority 2021, published 2024)", "key": {"[1]": {"test_system": "C. sinensis protoplast cells", "assay_type": "cell-based, Citrus sinensis"}, "[2]": {"test_system": "immortalized rat embryo fibroblasts", "settings": "cited from earlier work"}, "Arabidopsis": {"test_system": "Arabidopsis", "settings": "cited from earlier work"}, "[3]": {"test_system": "CLas-positive 5-year-old C. sinensis trees", "assay_type": "in vivo, Citrus sinensis", "settings": "7 days post trunk injection of streptomycin"}, "[4]": {"test_system": "CLas-positive stems of Valencia sweet orange", "settings": "branches soaked in DPI 25 μM, 48 h, vs water"}, "[5]": {"test_system": "HLB positive C. sinensis 'Valencia' trees", "assay_type": "in vivo, Citrus sinensis", "settings": "for H2O2 concentration in exudates of phloem-enriched bark tissues / cell death (ion leakage) in exudates of phloem-enriched bark tissues: weekly foliar spray, six weeks"}, "[6]": {"test_system": "HLB positive C. sinensis 'Valencia' and 'Vernia'", "assay_type": "in vivo, Citrus sinensis"}, "[7]": {"test_system": "ROS related genes in C. sinensis protoplast cells", "assay_type": "cell-based, Citrus sinensis", "settings": "GA 5 mg/L, 1.8 mM H2O2, 6 h"}, "[8]": {"settings": "uric acid 1.8 mM, rutin 0.6 mM, listed as Uric acid"}, "[9]": {"settings": "GA 5 mg/L foliar spray weekly for six weeks"}, "[10]": {"settings": "GA 25 mg/L foliar spray weekly for six weeks"}, "[11]": {"settings": "6-year-old 'Valencia' and 'Vernia', eight months after GA application"}, "[12]": {"settings": "GA 1,247 ppm foliar spray, 8 months after application"}}, "note": "“Also recorded” adds a separate entry of the source. Counter-ions that a name gives are not always drawn. Like-named read-outs stand apart in the source and are kept apart here.", "data": [{"compound": "OO", "note": "[H2O2]", "values": [{"measurement": "cell death of C. sinensis protoplast cells", "setting": "[1]; H2O2 0.6 mmol/L or lower, 24 h", "value": "not"}, {"measurement": "cell death of C. sinensis protoplast cells", "setting": "[1]; H2O2 1.8 mmol/L, 24 h", "value": "induced cell death"}, {"measurement": "viability of protoplast cells (FDA staining)", "setting": "[1]; different concentrations of H2O2, 24 h", "value": "kills"}, {"measurement": "concentration inducing necrosis", "setting": "[2]", "value": 700, "unit": "µmol/L"}, {"measurement": "concentration inhibiting growth of plants", "setting": "Arabidopsis", "value": 1, "unit": "mM"}]}, {"compound": "[H]/N=C(/N)N[C@H]1[C@H](O)[C@@H](O)[C@H](O[C@@H]2O[C@@H](C)[C@](O)(C=O)[C@H]2O[C@@H]2O[C@@H](CO)[C@H](O)[C@@H](O)[C@@H]2NC)[C@@H](N/C(N)=N\\[H])[C@@H]1O", "note": "[streptomycin, streptomycin sulfate]", "values": [{"measurement": "H2O2 content in the phloem tissues", "setting": "[3]", "value": "significantly reduced"}, {"measurement": "ion leakage in the phloem tissues", "setting": "[3]", "value": "significantly reduced"}, {"measurement": "CLas titers", "setting": "[3]; phloem tissues", "value": "significantly reduced"}]}, {"compound": "c1ccc2c(c1)[I+]c1ccccc1-2", "note": "[DPI, diphenyleneiodonium]", "values": [{"measurement": "ROS levels (H2O2 concentration) in phloem-enriched bark tissues of CLas-positive stems", "setting": "[4]", "value": "reduced"}]}, {"compound": "O=c1[nH]c(=O)c2[nH]c(=O)[nH]c2[nH]1", "note": "[uric acid]", "values": [{"measurement": "H2O2 concentration", "setting": "[1]; addition of uric acid 0.2 mM (text cites FIG. 5C)", "value": "reduced"}, {"measurement": "cell death of protoplast cells caused by H2O2", "setting": "[1]; addition of uric acid 0.2 mM, 24 h", "value": "reduced"}, {"measurement": "HLB symptoms compared with before treatment", "setting": "[5]; six weeks after first weekly foliar spray, uric acid 1.8 mM, rutin 0.6 mM, GA", "value": "significantly reduced"}, {"measurement": "H2O2 concentration in exudates of phloem-enriched bark tissues", "setting": "[5]; uric acid 1.8 mM, rutin 0.6 mM", "value": "reduced"}, {"measurement": "cell death (ion leakage) in exudates of phloem-enriched bark tissues", "setting": "[5]; uric acid 1.8 mM, rutin 0.6 mM", "value": "reduced"}, {"measurement": "H2O2 concentration in exudates of phloem-enriched bark tissues", "setting": "[5]; [8]", "value": "reduce"}, {"measurement": "cell death (ion leakage) in exudates of phloem-enriched bark tissues", "setting": "[5]; [8]", "value": "reduce"}]}, {"compound": "C=C1C[C@]23C[C@@]1(O)CC[C@H]2[C@@]12C=C[C@H](O)[C@@](C)(C(=O)O1)[C@H]2[C@@H]3C(=O)O", "note": "[GA, Gibberellic acid]", "values": [{"measurement": "death of C. sinensis protoplast cells caused by 1.8 mM H2O2", "setting": "[1]; GA 5 mg/L, 24 h", "value": "suppresses"}, {"measurement": "H2O2 caused by CLas (phloem exudates)", "setting": "[5]; [9]", "value": "reduced"}, {"measurement": "ion leakage caused by CLas (phloem exudates)", "setting": "[5]; [9]", "value": "reduced"}, {"measurement": "H2O2 caused by CLas (phloem exudates)", "setting": "[5]; [10]", "value": "reduced"}, {"measurement": "ion leakage caused by CLas (phloem exudates)", "setting": "[5]; [10]", "value": "reduced"}, {"measurement": "growth as indicated by new flushes", "setting": "[5]; six weeks after foliar spray, vs water control", "value": "promoted growth"}, {"measurement": "plant growth: canopy volume", "setting": "[6]; [11]", "value": "significantly promoted"}, {"measurement": "plant growth: tree height", "setting": "[6]; [11]", "value": "significantly promoted"}, {"measurement": "plant growth: trunk diameter", "setting": "[6]; [11]", "value": "significantly promoted"}, {"measurement": "HLB disease symptoms", "setting": "[6]; [12]", "value": "significantly reduced; also recorded: suppresses"}, {"measurement": "percentage of symptomatic leaves (ratio symptomatic leaves vs total leaves)", "setting": "[6]; [12]", "value": "significantly reduced"}, {"measurement": "HLB disease incidence (infected trees)", "setting": "[6]; in vivo", "value": 100, "unit": "%"}, {"measurement": "expression of RbohD", "setting": "[7]", "value": "inhibited"}, {"measurement": "expression of genes encoding H2O2 scavenging enzymes catalases, ascorbate peroxidases and glutathione peroxidases", "setting": "[7]", "value": "induced"}]}]}
